Laboratory results from patent publication US20230381142A1, “ANTILEISHMANIAL COMPOUNDS, COMPOSITIONS AND USE THEREOF” (TRUSTEES OF BOSTON UNIVERSITY, priority 2022, published 2023).
Where two headings read alike, the source gives them in different places. Marks after values point to notes of the source that are not given here.

What was measured:
B10R cells = test: UCSD infection assay, host cell cytotoxicity (CC50); assay type: cell-based; settings: host B10R cells
[1] = tested on: L. donovani intracellular amastigotes in B10R cells; test: UCSD L. donovani infection assay (Assay Conditions D); assay type: cell-based; settings: B10R cells; for L. donovani amastigotes EC75 (B10R cells): footnote d; for EC50: Leishmania donovani, values marked d, read-out: L. donovani amastigotes EC50 (B10R cells)
How it was run: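 B10R cells (300/well) infected with stationary-phase L. donovani WT promastigotes at 20 parasites/cell in DMEM high-glucose, 5% FBS, with compounds 72 h at 37° C., 5% CO2. Formaldehyde-fixed, DAPI-stained, imaged by high-content microscopy; 10-point 2-fold dilutions (screen at 10 μM) gave EC50 and host CC50.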

THP-1 cells = test: Host THP-1 cell cytotoxicity in the CDIPD high content screen; assay type: cell-based, human; settings: Homo sapiens, THP-1; 10 μM; footnote b; read-out: THP-1 host cell % growth inhibition at 10 μM
Method: (§1) Assay Conditions B: THP-1 cells (human acute monocytic leukemia cell line—ATCC TIB202) were grown in RPMI supplemented with 10% Fetal Bovine Serum (FBS) and 50 μM 2-mercaptoethanol at 37° C. in 5% CO2. THP-1 were seeded in microwell plates at 5×10^5 cells/mL density and treated with 0.1 μM phorbol myristate acetate (PMA, Sigma) at 37° C. for 48 h for differentiation into adherent, non-dividing macrophages. After activation by PMA, cells were washed and incubated with complete RPMI medium containing stationary phase Leishmania promastigotes (L. major: strain LV39; L. donovani, strain 1S/Cl2D) at a 1:15 parasite-cell ratio. Compounds were added and incubated at 37° C. for 72 h. Cells were then washed with phosphate-buffered saline (PBS), fixed for 30 minutes with 4% formaldehyde, rinsed again with PBS, stained for 2 h with 4′,6′-diamidino-2-phenylindole (DAPI 300 nM) and finally washed with PBS. In a collaborative effort to identify new antileishmanial chemotypes with minimal host cell cytotoxicity, compounds from the Boston University Center for Molecular Discovery (BUCMD) screening collection were assessed in a phenotypic, high content primary screen at the University of California's Center for Discovery and Innovation in Parasitic Diseases (CDIPD) for the ability to inhibit growth of L. donovani intracellular amastigotes infecting THP-1 cells. […] Dose-response testing in L. donovani (both intracellular amastigotes and promastigotes) confirmed concentration-dependent growth inhibition of both morphologies of the parasite at low micromolar EC50 values for both compounds (Table 1).

[2] = tested on: L. donovani intracellular amastigotes infecting THP-1 macrophages; test: GSK intramacrophage L. donovani assay (LD AMMAC, inMac; Assay Conditions C); assay type: cell-based; settings: Leishmania donovani; THP-1 cells; values marked c; read-out: L. donovani amastigotes EC50 (THP-1 cells)
How it was run: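 L. donovani amastigotes within THP-1 macrophages; EC50 based on average intracellular amastigotes per infected cell (AMMAC). Infected-cell percentage (INFCELL) and host-cell number (MAC) also read, the latter as toxicity output.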

[3] = tested on: L. donovani promastigotes (strain 1S/Cl2D); test: Promastigote assay, CellTiter-Glo (Assay Conditions F); assay type: cell-based; settings: Leishmania donovani; footnote f; read-out: L. donovani promastigotes EC50
Method: (§2) Assay Conditions F: Leishmania promastigotes (L. major: strain LV39; L. donovani, strain 1S/Cl2D) were maintained as previously described in PloS Negl Trop Dis (2015) 9(3):e0003588 and Pathogens (2021) 10(5):593) at 28° C. in M199 media supplemented with glutamine, adenosine, folic acid, hemin, HEPES, 10% Fetal Bovine Serum (Sigma-Aldrich, cat. no. F2442) and 1% Penicillin-Streptomycin (Gibco, cat. no. 15140122). For the promastigote assay, we followed the method previously described in PloS Negl Trop Dis (2011) 5(7):e1253. Briefly, promastigotes were incubated with the compounds for 72 h at 27° C., then lysed by adding 50 μL of CellTiter-Glo (Promega) and placed on an orbital shaker for 5 min at room temperature. After lysis, the resulting ATP-bioluminescence was measured using the Analyst HT plate reader (Molecular Devices).

[4] = tested on: L. major promastigotes (strain LV39); test: as above; assay type: cell-based; settings: Leishmania major; footnote f; read-out: L. major promastigotes EC50
Method: as §2

[5] = GSK inMac assay, host cell toxicity readout (LD MAC); assay type: cell-based, human; settings: human; footnote c; read-out: THP-1 Host Cell CC50
How it was run: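 Intramacrophage L. donovani assay in THP-1 macrophages; host toxicity taken from host cell number per well, giving MAC EC50. Run alongside amastigote-per-cell and infected-cell readouts in the same wells.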

[6] = tested on: L. donovani intracellular amastigotes infecting THP-1 cells; test: High content intracellular amastigote assay in THP-1 cells (Assay Conditions B; CDIPD screen); assay type: cell-based, Leishmania donovani; settings: 10 μM; THP-1 cells; footnote b
Method: as §1

[7] = tested on: L. major (strain LV39) intracellular amastigotes infecting THP-1 cells; test: High content intracellular amastigote assay in THP-1 cells (Assay Conditions B); assay type: cell-based, Leishmania major; settings: THP-1 cells; values marked b
Method: as §1

[8] = tested on: macrophages from bone marrow; test: Cellular viability of macrophages (Cell Titer Glo); assay type: cell-based, murine; settings: 500-1000 nM, 24 h
Method: Briefly, macrophages were obtained from bone marrow and seeded at a density of 1×10^6 cells per well in 24-well culture plates. After 2 hours, cells were treated with compounds at two concentrations (500 and 1000 nm) for 24 hours. Cell viability was determined using Cell Titer Glo (Promega), according to manufacturer's instructions. For positive control, pararosaniline chloride was used.

[9] = tested on: L. braziliensis-infected macrophages; test: Macrophage (BMDM) infection with L. braziliensis and exposure to CMLDs; assay type: cell-based, Leishmania braziliensis; settings: for number of amastigotes per 100 macrophages / percentage of infected macrophages / EC50: 24 h exposure; for EC50: Leishmania braziliensis, Macrophage, percentage of infected macrophages, read-out: EC50 against L. braziliensis-infected macrophages
Method: Leishmania braziliensis (MIHOM/BR/00/BA788) and L. major (Friedlin) promastigotes were maintained in Schneider's medium (SIGMA) supplemented with 10% heat-inactivated FCS, 100 U/ml penicillin, 100 μg/ml streptomycin (all from Invitrogen).
BMDM were obtained as described above. Cells were resuspended in DMEM medium supplemented with 100 U/mL penicillin, […] streptomycin, and 10% heat-inactivated Fetal Bovine Serum (all from Invitrogen) and seeded at a density of 3×10^5 cells per well in 24-well culture plates. Monolayers received 3×10^6 cells L. braziliensis promastigotes and were incubated at 37° C. in supplemented DMEM medium for 24 h. Infected macrophages were then washed to remove non-internalized parasites. Compounds CMLD 011128, CMLD010947, CMLD010498, and CMLD011494 were added at different concentrations. After 24 hours, cells were extensively washed, fixed and stained with hematoxylin and eosin (H&E). The number of infected cells and of intracellular amastigotes were counted by optical microscopy in 200 macrophages. Positive controls consisted of cultures treated with Amphotericin B (0.25 μg/mL, Invitrogen). Cultures were performed in quintuplicate. Alternatively, infected macrophages were treated as described, monolayers were extensively washed and the medium was replaced by 0.5 ml of supplemented Schneider medium. Cells were cultured for seven additional days at 26° C., when number of viable promastigotes was determined using hemocytometer.
Results were expressed as the mean percentage reduction of infected cells compared with untreated control wells. Half-maximal effective concentrations (EC50) were determined by sigmoidal regression curves using Prism 7.0 software (GraphPad Software Inc.)

[10] = tested on: L. major-infected murine macrophages; test: Macrophage infection with L. major and exposure to CMLDs; assay type: cell-based, Leishmania major; settings: for number of intracellular amastigotes / percentage of infected cells: L. major, only observed at the highest dose (1 μM)
[11] = tested on: L. braziliensis (strain BA788) in J774 cells; test: J774 luciferase infection assay (Assay Conditions E); assay type: cell-based, Leishmania braziliensis; settings: footnote e
Method: (§3) Assay Conditions E: J774 cells (ATCC J774A.1 were grown in DMEM supplemented with 10% Fetal Bovine Serum (FBS) and 1% Penicillin-Streptomycin at 37° C. in 5% CO2. Leishmania parasites expressing luciferase and GFP were grown as described in Front. Cell. Infect. Microbiol (2019) 9:237. J774 cells were seeded in microwell plates at 3×10^5 cells/mL density. Cells were washed with PBS and incubated with complete DMEM medium containing stationary phase Leishmania promastigotes (L. major: strain Friedlin; L. braziliensis, strain BA788) at a 1:10 parasite-cell ratio for 24 h. Cells were washed with PBS. Cells and compounds were incubated for 48 h at 37° C. and 5% C02. Compounds were tested in 8-point 2-fold serial dilution in 4 technical replicates, and 2 biological replicates. After 48 h, OneTiterGlo (Promega) (100 μl) was added to each well. Plates were incubated for 15 min and bioluminescence was measured using a plate reader (Molecular Devices). Effective concentration inducing 75% activity (EC75) was calculated using GraphPad Prism Software (version 9.0).

[12] = UCSD infection assay, host cell cytotoxicity (CC50); assay type: cell-based; settings: mouse, B10R host cells infected with L. donovani; footnote d
[13] = tested on: L. major (strain Friedlin) in J774 cells; test: J774 luciferase infection assay (Assay Conditions E); assay type: cell-based, Leishmania major; settings: values marked e
Method: as §3

[14] = tested on: L. donovani intracellular amastigotes infecting THP-1 macrophages; settings: GlaxoSmithKline Phase I VL candidates; read-out: intramacrophage EC50; cited from earlier work

COc1ncccc1C1c2c(CC(C)C)n[nH]c2C(=O)N1c1ccc2ncnn2c1 (stereo not shown) [BUCMD00162]
B10R Host Cell CC50 (B10R cells): >10000 nM

COc1ccc(N2C(=O)c3[nH]nc(CC(C)C)c3C2c2ccccc2)cc1 (stereo not shown) [CMLD007427]
L. donovani amastigotes EC75 (B10R cells) [1]: 1100 nM | inhibition at 10 µM (THP-1 cells): 11% | EC50 [2]: 3200 nM | EC50 [3]: 2400 nM | EC50 [4]: 4200 nM | CC50 [5]: 31600 nM | L. donovani amastigotes % GI at 10 μM (THP-1 cells) [6]: 100.0% | L. major amastigotes EC75 (THP-1 cells) [7]: 1.7^b μM

COc1ccc(N2C(=O)c3[nH]nc(CC(C)C)c3C2c2ccc(F)cc2)cc1 (stereo not shown) [CMLD007431]
L. donovani amastigotes EC75 (B10R cells) [1]: 1000 nM | inhibition at 10 µM (THP-1 cells): 13% | EC50 [2]: 2500 nM | EC50 [3]: 2000 nM | EC50 [4]: 4400 nM | CC50 [5]: > 20000 nM | L. donovani amastigotes % GI at 10 μM (THP-1 cells) [6]: 99.0% | L. major amastigotes EC75 (THP-1 cells) [7]: 1.3^b μM

Cc1cc(F)ccc1C1c2c(CC(C)C)n[nH]c2C(=O)N1c1ccc2ncnn2c1 (stereo not shown) [CMLD010948]
cell viability of macrophages [8]: did not change cell viability | L. donovani amastigotes EC75 (B10R cells) [1]: 1100 nM | EC50 [1]: 900 nM | leishmanicidal effect on L. braziliensis infection in vitro [9]: reduces L. braziliensis infection | number of amastigotes per 100 macrophages ([9]; L. braziliensis): significant decrease | percentage of infected macrophages ([9]; L. braziliensis): significant decrease | EC50 [9]: > 5000 nM | CC50 [5]: > 20000 nM | L. major infection in vitro [10]: reduce L. major infection | number of intracellular amastigotes [10]: significant decreased | percentage of infected cells [10]: significant decreased | L. braziliensis amastigotes EC75 (J774 cells) [11]: 5500 nM

COc1cc(F)ccc1C1c2c(CC(C)C)n[nH]c2C(=O)N1c1ccc(Br)cc1 (stereo not shown) [CMLD011494]
cell viability of macrophages [8]: did not change cell viability | L. donovani amastigotes EC75 (B10R cells) [1]: 100 nM | EC50 [1]: 100 nM | leishmanicidal effect on L. braziliensis infection in vitro [9]: reduces L. braziliensis infection | number of amastigotes per 100 macrophages ([9]; L. braziliensis): significantly reduced | percentage of infected macrophages ([9]; L. braziliensis): significantly reduced | number of viable promastigotes after exposure of infected BMDM ([9]; L. braziliensis, culture in Schneider medium): significantly reduced | EC50 [9]: 1640 nM | CC50 at 72 h [12]: 3980 nM | CC50 [5]: 4000 nM | L. major infection in vitro [10]: reduce L. major infection | number of intracellular amastigotes [10]: significant decreased | percentage of infected cells [10]: significant decreased | L. major amastigotes EC75 (J774 cells) [13]: 2.8^e μM | L. braziliensis amastigotes EC75 (J774 cells) [11]: 5200 nM

C[C@H]1CN(c2n[nH]c3nc(N[C@H]4CC[C@H](NS(=O)(=O)CCC(F)(F)F)CC4)ncc23)CCO1 [GSK3186899]
EC50 [14]: 1400 nM

O=C(Nc1ccc(F)c(-c2ccn3c(N4CCOCC4)cnc3n2)c1)N1CCCC1 [GSK3494245]
EC50 [14]: 1600 nM
